In the assay the test system is rabbit aortic rings.

Positions of bridges follow the written chain, without caps; N, C: chain ends. Non-standard residues stand in square brackets, D forms with d. Residues, ends and D or L forms follow the SMILES beside them. No end group written: not given here. Cha = N[C@@H](CC1CCCCC1)C(=O)O; Pen = CC(C)(S)[C@H](N)C(=O)O

As for `CC[C@H](C)[C@@H]1NC(=O)[C@H](CCCNC(=N)N)NC(=O)[C@H](CC(=O)O)NC(=O)[C@H]([C@@H](C)CC)NC(=O)[C@H](CCCNC(=N)N)NC(=O)CNC(=O)CNC(=O)[C@H](Cc2ccccc2)NC(=O)[C@@H](NC(=O)[C@H](CO)NC(=O)[C@@H](N)CO)CSSC[C@@H](C(=O)N[C@@H](CC(N)=O)C(=O)N[C@@H](CO)C(=O)N[C@@H](Cc2ccccc2)C(=O)N[C@@H](CCCNC(=N)N)C(=O)N[C@@H](Cc2ccc(O)cc2)C(=O)O)NC(=O)CNC(=O)[C@H](CC(C)C)NC(=O)CNC(=O)[C@H](CO)NC(=O)[C@H](CCC(N)=O)NC(=O)[C@H](C)NC(=O)CNC1=O` [ANP-(103-126), ATRIOPEPTIN III] (H-SSCFGGRIDRIGAQSGLGCNSFRY-OH; disulfide 3-19), where the note is “read-out: EC50 in the rabbit aorta, relaxation of norepinephrine precontracted rings, n = 8”, the EC50 (in general, the concentration needed to bring the measured effect to its halfway point) worked out at 2.3 ± 1.6 nM. As for [Pen][Cha]GRIDRIG-NH2 [Peptide No. 6], the “Relative Potencies to ANP-(103-126), Rabbit Aorta” value (relaxation of norepinephrine (50 nM) precontracted rings, EC50 compared with ANP-(103-126)) is 0.010.

(Values after patent US5106834A, “Linear free-sulfhydryl-containing oligopeptide derivatives as antihypertensive agents” (G. D. Searle & Co., priority 1988, dated 1992).)
